≈ marks a conversion by molar mass, not a printed value. Read-outs that look alike come from different tables or passages of the source.
How the values were obtained:
[1] = Circular dichroism spectroscopy of helical structure (benign buffer and 50% TFE); format: physicochemical
In short: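 Peptide CD spectra at 25 °C, 190–250 nm, in benign buffer (50 mM KH2PO4/K2HPO4, 100 mM KCl, pH 7) and in the same buffer with 50% TFE. Samples were a 10-fold dilution of ~500 μM stock. Mean residue molar ellipticity at 222 nm gave relative α-helicity.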

[2] = test system: Pseudomonas aeruginosa strains; conditions: for Antimicrobial activity Fold: fold improvement in geometric mean MIC compared to V681; for MIC CP 204: strain CP 204
[3] = Procedure: (§1) The geometric mean MIC values from 6 microbial strains in this table were calculated to provide an overall evaluation of antimicrobial activity against gram-negative bacteria.
(§2) Measurement of Antimicrobial Activity—Minimal inhibitory concentrations (MICs) were determined using a standard microtiter dilution method in LB (Luria-Bertani) no-salt medium (10 g of tryptone and 5 g of yeast extract per liter). Briefly, cells were grown overnight at 37° C. in LB and diluted in the same medium. […] Plates were incubated at 37° C. for 24 hours and MICs determined as the lowest peptide concentration that inhibited growth. Alternatively, minimal inhibitory concentrations were determined using a standard microtiter dilution method in a Mueller-Hinton (MH) medium. Briefly, cells were grown overnight at 37° C. in MH broth and diluted in the same medium. […] Plates were incubated at 37° C. for 24 hours and MICs determined as the lowest peptide concentration that inhibited growth. However, for MIC determination of Pseudomonas aeruginosa clinical isolates, brain heart infusion (BH1) medium was used instead of MH broth. In addition, the bacteria were diluted to a final inoculum of 1×10^6 colony-forming units/ml.

[4] = test system: E. coli (UB 1005 wt and DC2 abs); conditions: for MIC (μg/ml) E. coli C500 abs: antibiotic sensitive strain; for MIC (μg/ml) E. coli C498 wt: wild-type lab strain
Procedure: as §1, §2

P. aeruginosa H187 wt = test system: P. aeruginosa H187 wt
Procedure: as §1, §2

S. typhimurium C610 abs = test system: S. typhimurium C610 abs
Procedure: as §1, §2

[5] = 5° C., 100 mM KCl, 50 mM PO4 pH 7.4
[6] = 5° C., relative to D-V681 in 50% TFE
[7] = 5° C., benign buffer pH 7.4 containing 50% TFE
[8] = 5° C., pH 7.4 benign, relative to D-V681 in 50% TFE
[9] = 25° C., relative to NAL in 50% TFE
[10] = 25° C., benign buffer (100 mM KCl, 50 mM PO4 pH 7.0)
[11] = 25° C., benign buffer diluted 1:1 (v/v) with TFE
[12] = 25° C., benign buffer, relative to NAL in 50% TFE
[13] = methicillin-resistant clinical strain
[14] = geometric mean of six Pseudomonas aeruginosa clinical isolates

| Molecule | [θ]222 Benign [1, 5] [deg · cm^2 · dmol^−1] | % helix 50% TFE [1, 6] [%] | [θ]222 50% TFE [1, 7] [deg · cm^2 · dmol^−1] | % helix Benign [1, 8] [%] | % helix 50% TFE [1, 9] [%] | [θ]222 Benign [1, 10] | [θ]222 50% TFE [1, 11] | % helix Benign [1, 12] [%] | Antimicrobial activity Fold [2] | MIC CP 204 [2] [µg/mL] | MIC (μg/ml) St C587 wt ([3]; C610 abs) [µg/mL] | MIC (μg/ml) E. coli C500 abs [4] [µg/mL] | MIC (μg/ml) E. coli C498 wt [4] [µg/mL] | MIC (μg/ml) Pa H188 abs (P. aeruginosa H187 wt) [µg/mL] | MIC (μg/ml) Pa H187 wt (P. aeruginosa H187 wt; H187 wt) [µg/mL] | MIC (μg/ml) St C610 abs (S. typhimurium C610 abs; C610 abs) [µg/mL] | MIC (μg/ml) S. aureus 623 methR (Staphylococcus aureus; [13]) [µg/mL] | MIC (μg/ml) S. aureus 622 wt (Staphylococcus aureus; wild type strain) [µg/mL] | MIC (μg/ml) B. subtilis C971 wt (Bacillus subtilis) [µg/mL] | MIC (μg/ml) C. xerosis C875 wt (Corynebacterium xerosis) [µg/mL] | also measured |
| --- | --- | --- | --- | --- | --- | --- | --- | --- | --- | --- | --- | --- | --- | --- | --- | --- | --- | --- | --- | --- | --- |
| CC[C@H](C)[C@H](NC(=O)[C@H](C)NC(=O)[C@H](CCCCN)NC(=O)[C@H](CC(C)C)NC(=O)[C@H](C)NC(=O)[C@@H](NC(=O)[C@H](Cc1c[nH]cn1)NC(=O)[C@H](CC(C)C)NC(=O)[C@@H](NC(=O)[C@@H](NC(=O)[C@H](CCCCN)NC(=O)[C@@H](C)NC(=O)[C@H](C)NC(=O)[C@H](CO)NC(=O)[C@H](CCCCN)NC(=O)[C@H](Cc1ccccc1)NC(=O)[C@@H](NC(=O)[C@H](CCCCN)NC(=O)[C@H](CC(C)C)NC(=O)[C@H](Cc1ccccc1)NC(=O)[C@H](CO)NC(=O)[C@H](CCCCN)NC(=O)[C@H](Cc1c[nH]c2ccccc12)NC(=O)[C@H](CCCCN)NC(C)=O)[C@@H](C)O)[C@@H](C)O)C(C)C)[C@@H](C)O)C(=O)N[C@@H](CO)C(=O)N[C@@H](CO)C(N)=O [NAD] | −4000 | 89 | −25000 | 14 | 85 | −2,850 deg · cm^2 · dmol^−1 | −24,650 deg · cm^2 · dmol^−1 | 10 | 1.3 | 7.8 (≈ 2.66 µM) | 12.5 (≈ 4.26 µM) | 1.6 (≈ 0.545 µM) | 3.1 (≈ 1.06 µM) | 1.6 (≈ 0.545 µM) | 3.1 (≈ 1.06 µM) | 3.1 (≈ 1.06 µM) | 3.1 (≈ 1.06 µM) | 1.6 (≈ 0.545 µM) | 3.1 (≈ 1.06 µM) | 1.6 (≈ 0.545 µM) | MIC GM ([2]; strains): 22.1 µg/mL (≈ 7.53 µM); MIC M 2 ([2]; strains): 7.8 µg/mL (≈ 2.66 µM); MIC PA 14 ([2]; strains): 31.3 µg/mL (≈ 10.7 µM); MIC PAK ([2]; strains): 62.5 µg/mL (≈ 21.3 µM); MIC PAO 1 ([2]; strains): 15.6 µg/mL (≈ 5.32 µM); MIC WR 5 ([2]; strains): 62.5 µg/mL (≈ 21.3 µM) |
| CC[C@H](C)[C@H](NC(=O)[C@H](C)NC(=O)[C@H](CCCCN)NC(=O)[C@H](CC(C)C)NC(=O)[C@H](C)NC(=O)[C@@H](NC(=O)[C@H](Cc1c[nH]cn1)NC(=O)[C@H](CC(C)C)NC(=O)[C@@H](NC(=O)[C@@H](NC(=O)[C@H](CCCCN)NC(=O)[C@@H](NC(=O)[C@H](C)NC(=O)[C@H](CO)NC(=O)[C@H](CCCCN)NC(=O)[C@H](Cc1ccccc1)NC(=O)[C@@H](NC(=O)[C@H](CCCCN)NC(=O)[C@H](CC(C)C)NC(=O)[C@H](Cc1ccccc1)NC(=O)[C@H](CO)NC(=O)[C@H](CCCCN)NC(=O)[C@H](Cc1c[nH]c2ccccc12)NC(=O)[C@H](CCCCN)NC(C)=O)[C@@H](C)O)C(C)C)[C@@H](C)O)C(C)C)[C@@H](C)O)C(=O)N[C@@H](CO)C(=O)N[C@@H](CO)C(N)=O [Peptide V681, reference compound] | −13000 | 99 | −27950 | 46 | 94 | −12,900 deg · cm^2 · dmol^−1 | −27,300 deg · cm^2 · dmol^−1 | 45 | 1.0 | 15.6 (≈ 5.27 µM) | 12.5 (≈ 4.22 µM) | 3.1 (≈ 1.05 µM) | 6.3 (≈ 2.13 µM) | 3.1 (≈ 1.05 µM) | 6.3 (≈ 2.13 µM) | 3.1 (≈ 1.05 µM) | 6.3 (≈ 2.13 µM) | 3.1 (≈ 1.05 µM) | 3.1 (≈ 1.05 µM) | 3.1 (≈ 1.05 µM) | MIC GM [2, 14]: 27.8 µg/mL (≈ 9.39 µM); MIC M 2 ([2]; strain M 2): 15.6 µg/mL (≈ 5.27 µM); MIC PA 14 ([2]; strain PA 14): 62.5 µg/mL (≈ 21.1 µM); MIC PAK ([2]; strain PAK): 31.3 µg/mL (≈ 10.6 µM); MIC PAO 1 ([2]; strain PAO 1): 15.6 µg/mL (≈ 5.27 µM); MIC WR 5 ([2]; strain WR 5): 62.5 µg/mL (≈ 21.1 µM) |
| CC[C@H](C)[C@H](NC(=O)[C@H](C)NC(=O)[C@H](CCCCN)NC(=O)[C@H](CC(C)C)NC(=O)[C@H](C)NC(=O)[C@@H](NC(=O)[C@H](Cc1cnc[nH]1)NC(=O)[C@H](CC(C)C)NC(=O)[C@@H](NC(=O)[C@@H](NC(=O)[C@H](CCCCN)NC(=O)[C@H](CCCCN)NC(=O)[C@H](C)NC(=O)[C@H](CO)NC(=O)[C@H](CCCCN)NC(=O)[C@H](Cc1ccccc1)NC(=O)[C@@H](NC(=O)[C@H](CCCCN)NC(=O)[C@H](CC(C)C)NC(=O)[C@H](Cc1ccccc1)NC(=O)[C@H](CO)NC(=O)[C@H](CCCCN)NC(=O)[C@H](Cc1c[nH]c2ccccc12)NC(=O)[C@H](CCCCN)NC(C)=O)[C@@H](C)O)[C@@H](C)O)C(C)C)[C@@H](C)O)C(=O)N[C@@H](CO)C(=O)N[C@@H](CO)C(N)=O [NKL] | −1400 | 96 | −27000 | 5 | 91 | −1,450 deg · cm^2 · dmol^−1 | −26,250 deg · cm^2 · dmol^−1 | 5 | 0.6 | 7.8 (≈ 2.61 µM) |  | 3.1 (≈ 1.04 µM) | 3.1 (≈ 1.04 µM) |  |  |  |  |  | 3.1 (≈ 1.04 µM) | 1.6 (≈ 0.535 µM) | MIC (μg/ml) CP 204 ([2]; Pseudomonas aeruginosa clinical isolate CP 204): 7.8 µg/mL (≈ 2.61 µM); MIC (μg/ml) M 2 ([2]; Pseudomonas aeruginosa clinical isolate M 2): 31.3 µg/mL (≈ 10.5 µM); MIC (μg/ml) PA 14 ([2]; Pseudomonas aeruginosa clinical isolate PA 14): 62.5 µg/mL (≈ 20.9 µM); MIC (μg/ml) PAK ([2]; Pseudomonas aeruginosa clinical isolate PAK): 125.0 µg/mL (≈ 41.8 µM); MIC (μg/ml) PAO 1 ([2]; Pseudomonas aeruginosa clinical isolate PAO 1): 31.3 µg/mL (≈ 10.5 µM); MIC (μg/ml) WR 5 ([2]; Pseudomonas aeruginosa clinical isolate WR 5): 250.0 µg/mL (≈ 83.6 µM); MIC GM [2, 14]: 49.6 µg/mL (≈ 16.6 µM); MIC (μg/ml) GM ([2]; geometric mean of the MIC values for the 6 Pseudomonas aeruginosa clinical isolates): 49.6 µg/mL (≈ 16.6 µM); MIC M 2 ([2]; strain M 2): 31.3 µg/mL (≈ 10.5 µM); MIC PA 14 ([2]; strain PA 14): 62.5 µg/mL (≈ 20.9 µM); MIC PAK ([2]; strain PAK): 125.0 µg/mL (≈ 41.8 µM); MIC PAO 1 ([2]; strain PAO 1): 31.3 µg/mL (≈ 10.5 µM); MIC WR 5 ([2]; strain WR 5): 250.0 µg/mL (≈ 83.6 µM); MIC (μg/ml) St C587 wt ([3]; Salmonella typhimurium wild-type lab strain): 6.3 µg/mL (≈ 2.11 µM); MIC (μg/ml) Pa H188 abs (P. aeruginosa H187 wt; Pseudomonas aeruginosa antibiotic sensitive strain): 3.1 µg/mL (≈ 1.04 µM); MIC (μg/ml) Pa H187 wt (P. aeruginosa H187 wt; Pseudomonas aeruginosa wild-type lab strain): 6.3 µg/mL (≈ 2.11 µM); MIC (μg/ml) St C610 abs (S. typhimurium C610 abs; Salmonella typhimurium antibiotic sensitive strain): 3.1 µg/mL (≈ 1.04 µM); MIC (μg/ml) S. aureus 622 wt (Staphylococcus aureus): 12.5 µg/mL (≈ 4.18 µM); MIC (μg/ml) S. aureus 623 methR (Staphylococcus aureus): 12.5 µg/mL (≈ 4.18 µM) |
| CC[C@H](C)[C@H](NC(=O)[C@H](C)NC(=O)[C@H](CCCCN)NC(=O)[C@H](CC(C)C)NC(=O)[C@H](C)NC(=O)[C@@H](NC(=O)[C@H](Cc1c[nH]cn1)NC(=O)[C@H](CC(C)C)NC(=O)[C@@H](NC(=O)[C@@H](NC(=O)[C@H](CCCCN)NC(=O)[C@@H](NC(=O)[C@H](C)NC(=O)[C@@H](CO)NC(=O)[C@H](CCCCN)NC(=O)[C@H](Cc1ccccc1)NC(=O)[C@@H](NC(=O)[C@H](CCCCN)NC(=O)[C@H](CC(C)C)NC(=O)[C@H](Cc1ccccc1)NC(=O)[C@H](CO)NC(=O)[C@H](CCCCN)NC(=O)[C@H](Cc1c[nH]c2ccccc12)NC(=O)[C@H](CCCCN)NC(C)=O)[C@@H](C)O)C(C)C)[C@@H](C)O)C(C)C)[C@@H](C)O)C(=O)N[C@@H](CO)C(=O)N[C@@H](CO)C(N)=O [PSD] |  |  |  |  | 90 | −2,800 deg · cm^2 · dmol^−1 | −26,000 deg · cm^2 · dmol^−1 | 10 |  |  |  |  |  |  |  |  |  |  |  |  |  |
| Ac-KWKSFLKTFKSALKTVLHTALKAISS-NH2 [NLL] |  |  |  |  | 98 | −20,600 deg · cm^2 · dmol^−1 | −28,250 deg · cm^2 · dmol^−1 | 71 |  |  |  |  |  |  |  |  |  |  |  |  |  |

— patent US8252737B2, “Antimicrobial peptides and methods of use” (priority 2004, dated 2012)
